Structures are written as SMILES.

As a reminder, the melting point is the temperature, or range, at which the solid turns liquid. `CCOc1nn(-c2ccc(C(F)(F)F)cn2)cc1CCCOc1ccc(CCC(=O)O)cc1OC` registered a melting point of 131 to 132 °C.

As to `CCOC(=O)C1=C(N)NC(CF)=C(C(=O)OCC)C1c1cccc([N+](=O)[O-])c1` (stereo unspecified), the melting point is 177 to 178 °C.

The compound `CC(=O)c1ccc(S(N)(=O)=O)c(Cl)c1` displayed a melting point of 146 to 148 °C.

Take `Cc1c(C(=O)O)sc2[nH]c(=O)c(=O)[nH]c12`: the melting point is 289 to 294 °C.

Turning to `O=c1c(-c2ccccc2O)coc2cc(O)ccc12`, the melting point is 196 to 198 °C.

The compound `CC1Cc2cc(S(=O)(=O)n3cc(-c4ccccc4)[nH]c3=O)ccc2N1C(=O)c1ccc([N+](=O)[O-])cc1` (stereo unspecified) returned a melting point of 168 to 172 °C.

With `CSCC12CCC(O)C=C1CCC1C2CCC2(C)C(O)CCC12` (stereo unspecified), the melting point is 85 to 87 °C.

`COc1cc(NC(=O)Oc2ccccc2)ccc1S(=O)(=O)n1c(=O)n(C2CCCCCC2)c2cc(Cl)ccc21` displayed a melting point of 234 °C.

In turn, `Cn1c(=O)c2cnccc2n(C)c1=O` yielded a melting point of 174 to 175 °C.

`COC(=O)[C@@H]1CN(C#N)C[C@H]1c1ccc(OC)c(OC2CCCC2)c1` (relative stereo) returned a melting point of 78 to 80 °C.

Regarding `CCOC(=O)CNC(=O)Nc1cnc(Nc2ccc(Cl)c(Cl)c2)nc1NC`, the melting point worked out at 304 °C.

In the case of `CCCCCCCCCCCCc1cc(C(C(=O)Nc2c(OC)cc(OC)cc2OC)c2ccccc2)on1` (stereo unspecified), the melting point is 88 to 97 °C.

Compound `CNC(=O)N1N=C(c2ccc(NC(C)=O)cc2)c2cc3c(cc2CC1C)OCO3` (stereo unspecified) gave a melting point of 150 to 152 °C.

In turn, `CN1CCN(c2ncnc3c(N)cccc23)C1=O` yielded a melting point of 187 to 189 °C.

Compound `CC(C)(C)n1nc(Nc2ccccc2)c(C(N)=O)c1N` had a melting point of 225 to 227 °C.

In turn, `CNc1nc(Cl)nc2c1ncn2C1OC(CO)C(O)C1O` (stereo unspecified) had a melting point of 224 to 225 °C.

Take `Clc1ccc(-c2ccccc2OCC2CO2)nn1` (stereo unspecified): the melting point lay in the range of 118 to 119 °C.

For the compound `COc1ccc(C=C(C=O)C(C=O)=Cc2ccc(OC)c(OC)c2)cc1OC`, the melting point was in the range of 149 to 150 °C.

As to `COc1ccc(Br)c(-c2nc(=S)n(Cc3ccccc3)[nH]2)c1`, the melting point lay in the range of 154 to 155 °C.

On to `COc1cc2cc(C(=O)N3CC(CCl)c4c3cc(N3C(=O)c5ccccc5C3=O)c3ncccc43)[nH]c2c(OC)c1OC` (stereo unspecified), for which the melting point was 189 to 191 °C.

The compound `O=C(O)c1c(SCCO)c(SCCO)c(SCCO)c(SCCO)c1C(O)=NCCO` came in with a melting point of 152 to 157 °C.

`O=[N+]([O-])CC(c1ccc(Cl)cc1)C1CCCCC1O` (racemic) returned a melting point of 82 to 84 °C.

For `CC(C)C1Cc2cnc3c(c2C1=O)CCO3` (stereo unspecified), the melting point is 68 to 69 °C.

Regarding `CC(C)Cn1c(-c2c(F)cccc2F)c(Br)nc(Br)c1=O`, the melting point is 125 to 126 °C.

On to `O=c1nc(NCCCCc2ncccc2Cl)[nH]cc1C(O)c1ccncc1` (stereo unspecified), for which the melting point was 90 °C.

Turning to `NC(=O)c1cccc2c1nc(-c1c(F)cccc1F)n2Cc1c(F)cccc1F`, the melting point lay within 260 to 261 °C.

`CCCN(CCC)c1c([N+](=O)[O-])cc(C)c(C(C)C)c1[N+](=O)[O-]` yielded a melting point of 48.5 to 49 °C.

For the compound `COCCNc1ccc2ncnc(Nc3ccc(F)c(Cl)c3)c2c1`, the melting point fell in the range of 152 to 154 °C.

Turning to `Cc1c(-c2ccccc2)n(-c2c(F)cccc2F)c(-c2ccccc2Cl)cc1=O`, the melting point was 213 to 215 °C.

In the case of `CCCCc1[nH]c2ccc([N+](=O)[O-])cc2c1C(=O)c1ccc(OCCCCl)cc1`, the melting point was 125 °C.

`CC(C)(C)n1c(=O)n(-c2ccnc(N)c2)c2ccccc21` registered a melting point of 177 to 178 °C.

For the compound `COc1ccc(S(=O)(=O)N(CC(N)=O)c2ccc(Cl)cc2C(O)c2c(Cl)cccc2Cl)cc1OC` (stereo unspecified), the melting point was determined as 128 °C.

As for `O=C(NCCN1CCOCC1)c1nnc2ccccc2c1O`, the melting point was in the range of 196 to 198 °C.

On to `Oc1c(CN2CCCC2)cc(Nc2ccc3ccccc3n2)cc1CN1CCCC1`, for which the melting point lay within 64 to 66 °C.

Regarding `O=C(NN1CC=CCC1)Oc1ccccc1`, the melting point was 124 to 126 °C.

`C[C@H](Cn1nnc2ccccc21)n1cnc2cc3c(=O)n(C4CC4)nnc3cc2c1=O`: the melting point was 103 to 105 °C.

`Cn1c(COc2ccc(CC3SC(=O)N(C(c4ccccc4)(c4ccccc4)c4ccccc4)C3=O)cc2)nc2cc(Br)cnc21` (stereo unspecified) had a melting point of 97 to 100 °C.

Turning to `CC(=O)c1ccc(-c2ccc(C(C)=O)s2)s1`, the melting point was 235 °C.

`c1ccc(Sc2c(CCc3nc4ccccc4o3)[nH]c3ccccc23)cc1` gave a melting point of 192 to 193 °C.

`c1ccc2c(N3CCN(CCc4ccc(-c5csnn5)cc4)CC3)nsc2c1` yielded a melting point of 257 to 259 °C.

Take `CCOc1ccc2ccccc2c1-c1c(OCC)ccc2ccccc12`: the melting point came to 92 °C.

`CN1CC(=O)N(c2cc(Cc3n[nH]c(=O)c4ccccc34)ccc2F)C(=O)C1` gave a melting point of 205 to 208 °C.

As to `O=C(O)CCCCCCCCOc1ccccc1`, the melting point lay within 66.5 to 67.5 °C.

`CN(CC(=O)O)C(=O)CC1=C(n2nc(-c3c(-c4ccccc4)nn4ccccc34)ccc2=O)CCCC1` showed a melting point of 135 to 138 °C.

For `NNc1nccc(-c2ccc3c(ccn3-c3ccccn3)c2)c1Cl`, the melting point was determined as 173 °C.

Consider `O=c1c2c([nH]n1-c1ccc(Br)cc1)-c1cc(Cl)ccc1SC2`, for which the melting point lay within 257 to 260 °C.

Take `NC(=O)CNC(=O)c1cccc(-c2cccc3cc(Cc4cc(F)cc(Cl)c4)sc23)c1F`: the melting point lay within 46 to 47 °C.

Regarding `COC(=O)Cc1csc(NC(C)=O)n1`, the melting point lay in the range of 122 to 123 °C.

Turning to `COC(=O)Cn1nnc(NC(=O)C2c3ccccc3Oc3ccccc32)n1`, the melting point was in the range of 243 to 244 °C.

Consider `CCCNC(=O)N(Cc1ccc(C)cc1)NC(=O)OC(C)(C)C`, for which the melting point lay within 87.8 to 89.4 °C.

In turn, `O=C(O)CC(Cc1ccccc1)N1C(=O)c2ccccc2C1=O` (stereo unspecified) returned a melting point of 123 to 124 °C.

`COc1ccc(OC)c(C(Nc2ccc(C(=N)N)cc2)C(=O)O)c1` (racemic) gave a melting point of 310 °C.

As for `CC(C)(OCc1cc2cc(Cl)ccc2n1S(=O)(=O)c1ccc2c(c1)CCO2)C(=O)O`, the melting point was 130 to 132 °C.

With `Cc1ccc(C#CC2(O)CN3CCC2CC3)nc1` (stereo unspecified), the melting point lay within 176 to 180 °C.

`O=C(COc1ccccc1)Nc1ccc(CN2C(=O)[C@H]3CCC[C@H]3N(C(=O)CN3C(=O)c4ccccc4C3=O)c3ccccc32)cc1` (relative stereo) came in with a melting point of 134 to 137 °C.

`Cc1sc2c(Br)c3ccccc3c(-c3cc(Br)c(OC(C)C(=O)O)c(Br)c3)c2c1C` (stereo unspecified) had a melting point of 224 to 225 °C.

The compound `CCCCC1=Nc2sccc2C(=CN)N1CCC` returned a melting point of 45 to 47 °C.

The compound `COc1cc(OC)nc(NC(=O)NS(=O)(=O)c2ccccc2OS(=O)(=O)N(C)C)n1` registered a melting point of 165 to 168 °C.

Turning to `CCCc1cc(C(=O)OC)ccc1OCCCCCOc1ccc2c(c1CCC)OC(C(=O)OC)CC2` (stereo unspecified), the melting point lay in the range of 63 to 64 °C.

Take `CC(C)(C)OC(=O)C(N)Cn1c(=O)c(-c2cccs2)nc2ccccc21` (stereo unspecified): the melting point was in the range of 144 to 145 °C.

`CC(C)C[C@H](NC(=O)OC(C)(C)C)C(=O)NCC(=O)OCCCNc1cccc2c1C(=O)c1ccccc1C2=O` had a melting point of 86 °C.

In the case of `COc1ccc2c(c1)c(Cc1nc3c(F)c(F)cc(F)c3s1)cn2CC(=O)O`, the melting point was 165 to 167 °C.

With `Cc1cc(C(=O)O)c2[nH]c3c(c2c1)CCCC3`, the melting point is 225 °C.

For `CC1CC(=O)NN=C1c1ccc2c(c1)OCC(=O)N2C` (stereo unspecified), the melting point fell in the range of 188 to 190 °C.

`c1ccc(-c2nc(COc3cccc(CCCn4ccnc4)c3)co2)cc1`: the melting point is 62 to 63 °C.

`CC(=O)Nc1c(C(=O)c2cccc(Br)c2)[nH]c2cc(Cl)ccc12` returned a melting point of 183 to 184 °C.

In the case of `CCc1c(C(=O)c2cc(C)cc(C)c2)n(CC2CC=CC2)c(=O)[nH]c1=O`, the melting point was in the range of 209 to 210 °C.

Compound `CCc1ccccc1NC=C1C(=O)N(c2ccc(C(N)=O)cc2)N=C1C` had a melting point of 225 °C.

`Cc1ccc(S(=O)(=O)C2(CC#Cc3ccc(Cl)cc3)CC(=O)NC2=O)cc1` (stereo unspecified) returned a melting point of 186 to 188 °C.

Regarding `O=C(O)CC=CCC(=O)NCCc1ccccc1`, the melting point lay within 101 to 103 °C.

Compound `CC(C)N(CCC(CCN(C(C)C)C(C)C)(C(N)=O)c1ccc(Cl)cc1)C(C)C` yielded a melting point of 113 to 115 °C.

The compound `CS(=O)c1nnc(-c2cc(C(C)(C)C)c(O)c(C(C)(C)C)c2)s1` (stereo unspecified) displayed a melting point of 141 °C.

As to `CSc1ncc(CO)c(Nc2ccccc2)n1`, the melting point was in the range of 142 to 143 °C.

For the compound `Nc1nc2c(nc(Br)n2Cc2cccnc2)c(=O)[nH]1`, the melting point was above 300 °C.

`Oc1ccc(Oc2cnc3ccccc3c2)cc1` came in with a melting point of 250 °C.

Take `COC(=O)[C@H](Cc1ccccc1)NC(=S)Cc1ccc(C)cc1`: the melting point was in the range of 84 to 86 °C.

In turn, `COC(=O)SC1C2=C(CCCC2)C(=O)N1c1ccc(Cl)cc1F` (stereo unspecified) had a melting point of 80 to 81 °C.

Take `CCc1ccc2c(c1)C1CN(CCCC(=O)c3ccc(F)cc3)CCC1N2` (stereo unspecified): the melting point lay in the range of 192 to 195 °C.

In turn, `CC(C)(C)c1c(OCc2ccccc2)ccc2oc(C=O)cc12` showed a melting point of 136 °C.

In turn, `CNC(=O)c1cccc(NC(=O)Cc2cc(OC)c(OC)c(OC)c2)c1` returned a melting point of 81 to 82 °C.

With `CC(CN1CCn2c(c(-c3ccccc3)c3cc(Cl)ccc32)C1=O)N(C)C` (stereo unspecified), the melting point is 151 to 152 °C.

Compound `Cc1nnc2n1-c1ccccc1C(c1ccccc1C(F)(F)F)OC2` (stereo unspecified) showed a melting point of 265 to 269 °C.

The compound `COc1cc(OC)cc(-c2nc[nH]c2-c2ccc(N(C)C)cc2)c1` yielded a melting point of 79 to 81.1 °C.

`O=C(Nc1ccc(N2CCNCC2)c(C(F)(F)F)c1)c1ccc(F)c(OCc2cncc3ccccc23)c1` returned a melting point of 103 to 107 °C.

For the compound `CC1(C)C(=O)C(C(=O)c2ccc(C(F)(F)F)nc2CBr)=C(Cl)C(C)(C)C1=O`, the melting point was in the range of 94.5 to 95 °C.

For `CC(C)(C)c1ccc(OCC(O)CN2CCC3(CC2)CSC2=C(O3)c3ccccc3C(=O)C2=O)cc1` (stereo unspecified), the melting point is 150 to 152 °C.

Values taken from a melting point compilation (Tetko et al.; mined from patent text by program, amines drawn as free bases though some values may be those of a salt).
